# Laboratory results: patent US20130109581A1, “POSITIVELY CHARGED SPECIES AS BINDING REAGENTS IN THE SEPARATION OF PROTEIN AGGREGATES FROM MONOMERS” (priority 2009, published 2013)
# Values joined by “and” are separate entries in the source; they are usually repeats but may differ in a detail not shown here. Identical values can stand only once.
# What was measured:
# Type in all cases: binding
# [1] = target: T1, Aβ(1-42) aggregates (Homo sapiens, UniProt P05067)
# T1 construct: For Aβ(1-42), 10 nL of 10% brain homogenate was added to each well; from tissue; host or cells: Alzheimer's disease patient brain homogenate
# T1 sequence (P05067 672-713 limits assumed): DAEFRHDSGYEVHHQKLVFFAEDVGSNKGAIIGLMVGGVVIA
# [2] = target: T2, Aβ42 Fibrils (Homo sapiens, UniProt P05067); assay: Misfolded Protein Assay, LoD and capture in CSF: fibrils; conditions: for LoD: spiked into CSF
# T2 construct: The Ab42 aggregates were prepared as previously described
# T2 sequence (P05067 672-713 limits assumed): as above
# Procedure: The Ab42 aggregates were prepared as previously described: fibrils were prepared per Stine et al (JBC 2003, 278, p11612), globulomers were prepared per Barghorn et al (J Neurology 2005 95 p834), ADDLs were prepared per Lambert et al (PNAS 1998, 95 p6448), and ASPDs were prepared per Noguchi et al (JBC 2009 284 p32895). Normal CSF was pooled from clinically characterized non-demented patient CSF samples. AD CSF was pooled from clinically-characterized AD patient samples. Alzheimer's Disease Brain Homogenate (ADBH) was prepared by sonication of clinically diagnosed AD patient brain samples in 0.2M.sucrose (1:10 w/v).
# For the capture assay (Misfolded Protein Assay), aliquots of the beads (30 ul) were added to wells of a 96 well plate, followed by 125 ul of sample in 80:20 CSF:TBSTT. The plate was sealed and incubated for 1 h at 37 C with shaking. The plate was washed with TBST and the residual buffer removed. A denaturing solution (0.1 N NaOH) was added to each well and the plate heated to 80 C. for 30 min with shaking. After cooling the plate to RT, a neutralizing buffer (0.12 M NaH2PO3-0.4% TW20,) was added and the plate shaken briefly at RT. The assay was analyzed using the triplex Mesoscale Discovery ELISA kit for Aβ. The Aβ in the samples eluted from the beads were detected per the manufacturer's protocol.
# For the Limit of Detection (LoD) studies, serial dilutions of each aggregate were spiked into CSF and were assayed per the protocol described above. The LoD was defined as 2× over background levels.
# This pattern minors the capture selectivity observed when these species are tested with 3 ul of PSR1 beads and 1 ng/mL of aggregate.
# [3] = target: T3, Abeta 1-42 globulomer (Homo sapiens, UniProt P05067); assay: Globulomer capture assay in CSF (Example 6)
# T3 construct: beta amyloid (1-42) was monomerized with incubation in hexafluoroisopropanol
# T3 sequence (P05067 672-713 limits assumed): as above
# Procedure: (§1) A series of new potential aggregate-specific binding reagents were designed as shown below and conjugated onto magnetic Dynal M270 beads as described in Example 2. Typically 7-12 nmol of ligand (each candidate aggregate-specific binding reagent) was coated onto 1 mg of beads.
# (§2) Aliquots of the beads (typically 3 ul) were added to wells of a 96 well plate, followed by sample (with or without Abeta 1-42 globulomer (an Abeta42 oligomer model) spiked in 80:20 CSF:TBSTT, typically 125 ul). The plate was sealed and incubated for 1 hour at 37° C. with shaking. The plate was washed with aqueous solutions of detergent (typically polyethylene glycol sorbitan monolaurate and n-tetradecyl-N,N-dimethyl-3-ammonio-1-propanesulfonate) to remove ubound material and the residual buffer removed. A denaturing solution (typically 0.1-0.15 N NaOH) was added to each well and the plate heated to 80° C. for 30 min with shaking. After cooling the plate to room temperature, a neutralizing buffer (typically 0.12-0.18 M NaH2PO3 in 0.4% TWEEN20,) was added and the plate was shaken briefly at room temperature. The bead eluate was analyzed using either an Aβ42-specific ELISA or the MSD® 96-Well MULTI-SPOT® Human/Rodent [4G8] Abeta Triplex Ultra-Sensitive Assay from Meso Scale Discovery (Gaithersburg, Md.). For the Aβ42-specific assay, the samples were eluted from the beads and a detection antibody (4G8 HRP) was added to a plate bearing the Aβ42-specific antibody 12F4. The plate was incubated for 1 hour, washed, the substrate was added (SuperSignal West Femto Maximum Sensitivity Substrate from Thermo Fisher, Rockville, Md.), and the luminescence was measured. The MSD plate assay was performed in a similar fashion, according to the manufacturer's protocol.
# (§3) In this experiment the preferred number of charges within a given scaffold was identified. An Ala/Lys peptide framework was utilized, where the inclusion of each Lys residue increases the peptides' net charge by +1. Six hexapeptides with increasing charge (+1→+6), AAAKAA, AAKKAA, AAKKKA, AKKKKA, AKKKKK, and KKKKKK, were prepared and conjugated on the beads. The ability of these beads to capture Abeta 1-42 globulomer spiked at 1 ng/mL into CSF was tested, and the result is shown in FIG. 25. The globulomer capture level (“42 1 ng/ml” or the closed bars) was compared to the background signal of Abeta 1-42 detected in the unspiked CSF (“42 0 ng/ml”) and the background signal of Abeta 1-40 detected in unspiked CSF (“40 0 ng/ml”) or CSF spiked with AB42 oligomers “40 1 ng/ml”. The charge density, as conjugated to the magnetic beads, of each reagent evaluated in this experiment is shown below in Table 8.
# [4] = target: T4, Abeta 1-40 monomer (Homo sapiens, UniProt P05067); assay: Globulomer capture assay in CSF (Example 6): Abeta 1-40 noise; conditions: Abeta 1-40 signal (noise), CSF samples
# T4 construct: Abeta 1-40 monomer capture level; from tissue; host or cells: cerebrospinal fluid (matrix of the assay)
# T4 sequence (P05067 672-711 limits assumed): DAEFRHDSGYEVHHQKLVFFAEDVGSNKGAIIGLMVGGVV
# Procedure: as §1, §2, §3
substance,measurement,setting,value
Nab-Nab-Nab-Nbn-Nab-Nbn [PSR1],"distinguishing control and AD brain homogenates, Abeta (1-42) detected",[1],clearly distinguished between control and either vCJD or AD samples
same,capture of Fibril,[2]; 3 ul of beads and 1 ng/mL of aggregate,3636
same,LoD,[2],<2 amol
same,LoD,[2]; LoD = 2× over background,~50 pg/mL and 50 pg/mL
same,42:40 (signal:noise ratio),"[3]; 1 ng/ml average reading, ratio of 42 to 40",4.1
same,"42, 1 ng/ml average reading",[3]; Abeta 1-42 globulomer spiked at 1 ng/mL into CSF,970.5 RLUs
same,"40, 1 ng/ml average reading",[4],234.5 RLUs
